From the NIST ThermoML archive (doi:10.1021/je8009545)

Experiment: xn = mol fraction of the nth substance listed
Conditions: Gas; for mass density: Gas pipette; for viscosity: Oscillating disk viscometry

COC [dimethyl ether] + N#N
Conditions	mass density [kg/m3]	viscosity [mPa·s]
373.15 K, 2505 kPa, x1 = 1	51.25	0.01219
373.15 K, 2875 kPa, x1 = 1	67.49	0.01247
373.15 K, 2895 kPa, x1 = 0.82	51.12	0.01352
373.15 K, 3005 kPa, x1 = 0.281	33.02	0.01823
373.15 K, 3049 kPa, x1 = 1	74.07	0.01261
373.15 K, 3065 kPa, x1 = 0.522	40.84	0.01599
398.15 K, 101 kPa, x1 = 0.246	0.853	0.01917
398.15 K, 101 kPa, x1 = 0.525	0.885	0.01617
398.15 K, 101 kPa, x1 = 0.78	0.727	0.01397
398.15 K, 101 kPa, x1 = 1	0.948	0.01234
398.15 K, 300 kPa, x1 = 1	4.392	0.01237
398.15 K, 310 kPa, x1 = 0.246	2.938	0.01921
398.15 K, 315 kPa, x1 = 0.78	4.107	0.01399
398.15 K, 317 kPa, x1 = 0.525	3.633	0.01622
398.15 K, 516 kPa, x1 = 0.525	5.877	0.01623
398.15 K, 519 kPa, x1 = 0.246	5.15	0.01919
398.15 K, 531 kPa, x1 = 1	7.678	0.01239
398.15 K, 533 kPa, x1 = 0.78	7.077	0.01401
398.15 K, 992 kPa, x1 = 1	15.1	0.01244
398.15 K, 1009 kPa, x1 = 0.78	13.52	0.0141
398.15 K, 1020 kPa, x1 = 0.525	11.91	0.01629
398.15 K, 1048 kPa, x1 = 0.246	10.02	0.01926
398.15 K, 2018 kPa, x1 = 0.525	23.95	0.01651
398.15 K, 2030 kPa, x1 = 0.246	19.75	0.01943
398.15 K, 2030 kPa, x1 = 0.78	28.37	0.01433
398.15 K, 2085 kPa, x1 = 1	34.47	0.01274
398.15 K, 2973 kPa, x1 = 0.246	29.35	0.0196
398.15 K, 2985 kPa, x1 = 1	54.66	0.01317
398.15 K, 2986 kPa, x1 = 0.78	44.58	0.01465
398.15 K, 3015 kPa, x1 = 0.525	36.43	0.01675
398.15 K, 3735 kPa, x1 = 0.78	58.58	0.015
398.15 K, 3839 kPa, x1 = 0.246	37.95	0.01974
398.15 K, 3905 kPa, x1 = 0.525	47.93	0.01701
398.15 K, 3965 kPa, x1 = 1	87.68	0.0141
398.15 K, 4480 kPa, x1 = 1	112.3	0.01504
398.15 K, 4569 kPa, x1 = 0.78	77.25	0.0155
398.15 K, 4620 kPa, x1 = 1	122.4	0.01543
398.15 K, 4730 kPa, x1 = 0.525	59.49	0.01731
398.15 K, 4860 kPa, x1 = 0.246	48.5	0.01995
423.15 K, 101 kPa, x1 = 0.272	0.662	0.01978
423.15 K, 101 kPa, x1 = 0.527	0.694	0.01721
423.15 K, 101 kPa, x1 = 0.764	1.072	0.01516
423.15 K, 101 kPa, x1 = 1	1.009	0.01332
423.15 K, 310 kPa, x1 = 1	4.289	0.01333
423.15 K, 314 kPa, x1 = 0.272	2.901	0.01984
423.15 K, 316 kPa, x1 = 0.527	3.343	0.01723
423.15 K, 320 kPa, x1 = 0.764	4.447	0.01522
423.15 K, 505 kPa, x1 = 0.527	5.456	0.01726
423.15 K, 505 kPa, x1 = 1	6.812	0.01335
423.15 K, 520 kPa, x1 = 0.764	6.591	0.01524
423.15 K, 529 kPa, x1 = 0.272	4.699	0.01986
423.15 K, 985 kPa, x1 = 1	13.75	0.01342
423.15 K, 1021 kPa, x1 = 0.764	12.33	0.0153
423.15 K, 1040 kPa, x1 = 0.272	9.555	0.01994
423.15 K, 1047 kPa, x1 = 0.527	11.35	0.01734
423.15 K, 2013 kPa, x1 = 0.527	22.17	0.01753
423.15 K, 2022 kPa, x1 = 1	30.21	0.0137
423.15 K, 2030 kPa, x1 = 0.272	18.92	0.02008
423.15 K, 2060 kPa, x1 = 0.764	25.8	0.01558
423.15 K, 2926 kPa, x1 = 0.764	38.25	0.01581
423.15 K, 2955 kPa, x1 = 0.272	27.91	0.02018
423.15 K, 2995 kPa, x1 = 0.527	33.84	0.01769
423.15 K, 3004 kPa, x1 = 1	48.47	0.01413
423.15 K, 3970 kPa, x1 = 0.764	54.49	0.01621
423.15 K, 3973 kPa, x1 = 0.527	45.63	0.01796
423.15 K, 4000 kPa, x1 = 0.272	37.87	0.02038
423.15 K, 4015 kPa, x1 = 1	71.3	0.01477
423.15 K, 4495 kPa, x1 = 1	86.57	0.01521
423.15 K, 4873 kPa, x1 = 0.527	56.58	0.01822
423.15 K, 4894 kPa, x1 = 0.764	69.38	0.01664
423.15 K, 4911 kPa, x1 = 0.272	46.7	0.02057
423.15 K, 4912 kPa, x1 = 1	99.15	0.01568
